Read-outs that look alike come from different tables or passages of the source.
Assays:
Aphis gossypii = Aphis gossypii - test (leaf dip); type: in vivo; conditions: foliar, application rate of 20 ppm, cotton leaves dipped
Method: Aphis gossypii - test [table] To produce a suitable preparation of active compound, 1 part by weight of active compound is mixed with the stated amount of solvent and emulsifier, and the concentrate is diluted with emulsifier-containing water to the desired concentration. Cotton leaves (Gossypium hirsutum) which are heavily infested by the cotton aphid (Aphis gossypii) are treated by being dipped into the preparation of the active compound of the desired concentration. After the specified period of time, the mortality in % is determined. 100 % means that all the aphids have been killed; 0 % means that none of the aphids have been killed.

Myzus persicae [1] = test: Myzus persicae - test (spray application); type: in vivo; conditions: application rate of 500 g/ha, Chinese cabbage leaf-disks sprayed, all instars
Method: Myzus persicae - test; (spray application)
(§1) To produce a suitable preparation of active compound, 1 part by weight of active compound is mixed with the stated amount of solvent and emulsifier, and the concentrate is diluted with emulsifier-containing water to the desired concentration.
Chinese cabbage (Brassica pekinesis) leaf-disks infected with all instars of the green peach aphid (Myzus persicae), are sprayed with a preparation of the active ingredient at the desired concentration.
After the specified period of time, mortality in % is determined. 100% means that all aphids have been killed; 0% means that none of the aphids have been killed.

[2] = logP (HCOOH) by HPLC, EEC-Directive 79/831, Annex V.A8; type: physicochemical; conditions: gradient method; for chromatographic logP: hplc acetonitrile/0.1% hcooh
Method: A stirred mixture of 600 mg (3,4 mmol) 4-fluoro-1-aminoindane and 778 mg (4.37 mmol) 1,1-thiocarbonyldiimidazole in dichloromethane was kept at ambient temperature for 1,5 h. After addition of 230 mg (3.74 mmol) 2-aminoethanol dissolved in 3 mL dichloromethane the resulting mixture was stirred for further 72 h at ambient temperature. Then, the mixture was diluted with ethyl acetate and washed with 1 N HCl and saturated NaHCO3 solution. After phase separation, the organic phase was dried with solid Na2SO4, filtered and evaporated under reduced pressure. The residue was purified by chromatography (silica gel, cyclohexane/ethyl acetate = vol. 5:1) to afford 350 mg 1-(4-fluoro-2,3-dihydro-1H-inden-1-yl)-3-(2-hydroxyethyl)thiourea. The NMR spectrum was consistent with the proposed structure. logP^(1)) = 1,74 [formula] ^1) logP (HCOOH) determined according to EEC-Directive 79/831, Annex V.A8 using HPLC (gradient method, acetonitrile/0.1% HCOOH)
logP (HCOOH) determined according to EEC-Directive 79/831, Annex V.A8 using HPLC (gradient method, acetonitrile/0.1% HCOOH)

Tetranychus urticae = Tetranychus urticae - test; OP-resistant (spray application); type: in vivo; conditions: in Phaseolus vulgaris, read-out: activity (mortality in %)
Method: Tetranychus urticae - test; OP-resistant (spray application)
as §1
French bean (Phaseolus vulgaris) which are heavily infested with all stages of the two spotted spidermite (Tetranychus urticae), are sprayed with a preparation of the active ingredient at the desired concentration.
After the specified period of time, mortality in % is determined. 100% means that all spider mites have been killed and 0% means that none of the spider mites have been killed.

Myzus persicae [3] = test: Myzus-Test; oral (spray application); type: in vivo
Method: Myzus-Test; oral (spray application)
To produce a suitable preparation of active compound, 1 part by weight of active compound ist mixed with the stated amount of solvent and emulsifier, and the concentrate is diluted with emulsifier-containing water to the desired concentration.
Containers are infested with a mixed population of the green peach aphid (Myzus persicae), the aphids suck on a preparation of the active compound at the desired concentration.
After the specified period of time, mortality in % is determined. 100 % means that all aphids have been killed; 0 % means that none of the aphids have been killed.

Myzus persicae [4] = test: Myzus persicae - test (drench); type: in vivo; conditions: soil, application rate of 20 ppm, cabbage plants drenched
Method: as §1
Cabbage plants (Brassica oleracea) which are heavily infested by the green peach aphid (Myzus persicae) are treated by being drenched with the preparation of the active compound of the desired concentration.
After the specified period of time, mortality in % is determined. 100 % means that all the aphids have been killed; 0 % means that none of the aphids have been killed.

[5] = application rate of 100 ppm, aphids suck on preparation, mixed population

chromatographic logP [2] | Structure (SMILES) | mortality at 20 ppm (Aphis gossypii) [%] | mortality at 500 g/ha (Myzus persicae [1]) [%] | other results
1.74 | OCCNC(=S)NC1CCc2c(F)cccc21 (stereo not shown) [1-14, 1-(4-fluoro-2,3-dihydro-1H-inden-1-yl)-3-(2-hydroxyethyl)thiourea] | ≥ 80 | ≥ 80 | –
1.68 | OCCNC(=S)NC1CCc2c(F)ccc(F)c21 (stereo not shown) [1-83] | – | – | –
2.21 | COCCNC(=S)NC1CCc2c(F)cccc21 (stereo not shown) [1-17] | – | ≥ 80 | mortality at 100 ppm (Myzus persicae [3]): ≥ 80%

Further lines, the compound ahead of its results:

Structure (SMILES) | chromatographic logP [2] | mortality at 20 ppm (Aphis gossypii) [%] | mortality at 500 g/ha (Myzus persicae [1]) [%] | other results
CC(CO)NC(=S)N[C@H]1CCc2ccccc21 (stereo partly shown) [1-21] | 1.78 | – | – | –
OCCNC(=S)N[C@H]1CCc2ccccc21 [1-2, 1-[(1S)-2,3-dihydro-1H-inden-1-yl]-3-(2-hydroxyethyl)thiourea] | 1.65 | ≥ 80 | ≥ 80 | mortality at 100 g/ha (Tetranychus urticae): ≥ 80%; mortality at 100 ppm (Myzus persicae [3]; [5]): ≥ 80%; mortality at 20 ppm (Myzus persicae [4]): ≥ 80%; logP (HCOOH) ([2]; acetonitrile/0.1% HCOOH): 1,56
OCCNC(=S)N[C@@H]1CCc2ccccc21 [1-3] | 1.65 | – | – | –
OCCN(CCO)C(=S)N[C@H]1CCc2ccccc21 [1-105] | 1.64 | – | – | –
OCCNC(=S)N[C@H]1CCCc2ccccc21 [4-2] | 1.79 | ≥ 80 | ≥ 80 | –
COCCNC(=S)NC1CCc2ccccc21 (stereo not shown) [1-4, 1-(2,3-dihydro-1H-inden-1-yl)-3-(2-methoxyethyl)thiourea] | 2.07 | – | ≥ 80 | mortality at 100 ppm (Myzus persicae [3]; [5]): ≥ 80%
OCCNC(=S)NC1CCOc2ccccc21 (stereo not shown) [3-1] | 1.42 | – | ≥ 80 | –

Reference: EP1977646A1, “Insecticidal hydroxyethyl thlourea derivatives” (Bayer CropScience AG, priority 2007, dated 2008)
